Measured values taken from ChEMBL document CHEMBL3868615, “Decahydrobenzoquinolin-5-one sigma receptor ligands: Divergent development of both sigma 1 and sigma 2 receptor selective examples” (Bioorg Med Chem Lett, 2016).

Tests used:
[1] = molecular target: 5-hydroxytryptamine receptor 1D (Homo sapiens, UniProt P28221); assay: Displacement of [3H]5-CT from human 5-HT1D receptor expressed in HEK-T cells measured after 90 mins by microbeta scintillation counting method; format: cell-based
[2] = molecular target: Muscarinic acetylcholine receptor M2 (Homo sapiens, UniProt P08172); assay: Binding affinity to human M2 receptor expressed in CHO cells measured after 90 mins by radioligand binding assay; format: cell-based
[3] = molecular target: 5-hydroxytryptamine receptor 1E (Homo sapiens, UniProt P28566); assay: Displacement of [3H]5-HT from human 5-HT1E receptor expressed in HEK cells measured after 90 mins by microbeta scintillation counting method; format: cell-based, HEK293
[4] = molecular target: Alpha-2A adrenergic receptor (Homo sapiens, UniProt P08913); assay: Displacement of [3H]Rauwolscine from human Alpha2A receptor expressed in MDCK cells measured after 90 mins by microbeta scintillation counting method; format: cell-based
[5] = molecular target: Alpha-2B adrenergic receptor (Homo sapiens, UniProt P18089); assay: Displacement of [3H]Rauwolscine from human Alpha2B receptor expressed in HEK-T cells measured after 90 mins by microbeta scintillation counting method; format: cell-based
[6] = molecular target: 5-hydroxytryptamine receptor 3A (Homo sapiens, UniProt P46098); assay: Displacement of [3H]GR65630 from human 5-HT3 receptor expressed in HEK-T cells measured after 90 mins by microbeta scintillation counting method; format: cell-based
[7] = tested on: PC-12; details: Rattus norvegicus, 10 uM
[8] = molecular target: Sigma non-opioid intracellular receptor 1 (Cavia porcellus) (UniProt Q60492); details: 10 uM
[9] = molecular target: D(1B) dopamine receptor (Homo sapiens, UniProt P21918); assay: Displacement of [3H]SCH23390 from human D5 receptor expressed in HEK-T cells measured after 90 mins by microbeta scintillation counting method; format: cell-based
[10] = molecular target: Muscarinic acetylcholine receptor M5 (Homo sapiens, UniProt P08912); assay: Binding affinity to human M5 receptor expressed in CHO cells measured after 90 mins by radioligand binding assay; format: cell-based
[11] = molecular target: Histamine H2 receptor (Homo sapiens, UniProt P25021); assay: Binding affinity to H2 receptor (unknown origin) expressed in HEKT cells measured after 90 mins by radioligand binding assay; format: cell-based
[12] = molecular target: Kappa-type opioid receptor (Homo sapiens, UniProt P41145); assay: Displacement of [3H]U69593 from KOR (unknown origin) expressed in HEKT cells measured after 90 mins by microbeta scintillation counting method; format: cell-based
[13] = molecular target: Delta-type opioid receptor (Homo sapiens, UniProt P41143); assay: Displacement of [3H]DADLE from human DOR expressed in HEK cells measured after 90 mins by microbeta scintillation counting method; format: cell-based, HEK293
[14] = Displacement of [3H]DTG from sigma2 receptor in rat PC12 cells measured after 90 mins by microbeta scintillation counting method; format: cell-based; details: pc-12
[15] = molecular target: Mu-type opioid receptor (Homo sapiens, UniProt P35372); assay: Displacement of [3H]DAMGO from human MOR expressed in HEK cells after 90 mins by microbeta scintillation counting method; format: cell-based, HEK293
[16] = molecular target: Sigma non-opioid intracellular receptor 1 (Cavia porcellus, UniProt Q60492); assay: Displacement of [3H]pentazocine from guinea pig sigma1 receptor measured after 90 mins by microbeta scintillation counting method
[17] = molecular target: Histamine H1 receptor (Homo sapiens, UniProt P35367); assay: Displacement of [3H]Pyrilamine from human H1 receptor expressed in HEK cells measured after 90 mins by microbeta scintillation counting method; format: cell-based, HEK293
[18] = molecular target: Alpha-1B adrenergic receptor (Homo sapiens, UniProt P35368); assay: Displacement of [3H]Prazosin from human Alpha1B receptor expressed in HEK-T cells measured after 90 mins by microbeta scintillation counting method; format: cell-based
[19] = molecular target: Alpha-2C adrenergic receptor (Homo sapiens, UniProt P18825); assay: Displacement of [3H]Rauwolscine from human Alpha2C receptor expressed in MDCK cells measured after 90 mins by microbeta scintillation counting method; format: cell-based
[20] = tested on: PC-12; assay: Selectivity ratio of Ki for sigma2 receptor in rat PC12 cells to Ki for guinea pig sigma1 receptor; format: cell-based
[21] = molecular target: Sodium-dependent serotonin transporter (Homo sapiens, UniProt P31645); assay: Displacement of [3H]Citalopram from human SERT expressed in HEK cells measured after 90 mins by microbeta scintillation counting method; format: cell-based, HEK293
[22] = molecular target: D(2) dopamine receptor (Homo sapiens, UniProt P14416); assay: Displacement of [3H]N-methylspiperone from human D2 receptor expressed in fibroblast cells measured after 90 mins by microbeta scintillation counting method; format: cell-based
[23] = molecular target: D(1A) dopamine receptor (Homo sapiens, UniProt P21728); assay: Displacement of [3H]SCH23390 from human D1 receptor expressed in HEK-T cells measured after 90 mins by microbeta scintillation counting method; format: cell-based
[24] = molecular target: Sodium-dependent noradrenaline transporter (Homo sapiens, UniProt P23975); assay: Displacement of [3H]Nisoxetine from human NET expressed in HEK cells measured after 90 mins by microbeta scintillation counting method; format: cell-based, HEK293
[25] = molecular target: Alpha-1D adrenergic receptor (Homo sapiens, UniProt P25100); assay: Displacement of [3H]Prazosin from human Alpha1D receptor measured after 90 mins by microbeta scintillation counting method
[26] = molecular target: Muscarinic acetylcholine receptor M1 (Homo sapiens, UniProt P11229); assay: Binding affinity to human M1 receptor expressed in CHO cells measured after 90 mins by radioligand binding assay; format: cell-based
[27] = molecular target: Muscarinic acetylcholine receptor M4 (Homo sapiens, UniProt P08173); assay: Binding affinity to human M4 receptor expressed in CHO cells measured after 90 mins by radioligand binding assay; format: cell-based
[28] = molecular target: 5-hydroxytryptamine receptor 5A (Homo sapiens, UniProt P47898); assay: Displacement of [3H]LSD from human 5-HT5A receptor expressed in Flp-In CHO cells measured after 90 mins by microbeta scintillation counting method; format: cell-based
[29] = molecular target: 5-hydroxytryptamine receptor 1B (Homo sapiens, UniProt P28222); assay: Displacement of [3H]5-CT from human 5-HT1B receptor expressed in HEK cells measured after 90 mins by microbeta scintillation counting method; format: cell-based, HEK293
[30] = molecular target: Alpha-1A adrenergic receptor (Homo sapiens, UniProt P35348); assay: Displacement of [3H]Prazosin from human Alpha1A receptor measured after 90 mins by microbeta scintillation counting method
[31] = molecular target: 5-hydroxytryptamine receptor 2B (Homo sapiens, UniProt P41595); assay: Displacement of [3H]LSD from human 5-HT2B receptor expressed in HEK cells measured after 90 mins by microbeta scintillation counting method; format: cell-based, HEK293
[32] = molecular target: Beta-2 adrenergic receptor (Homo sapiens, UniProt P07550); assay: Displacement of [3H]CGP12177 from human beta2 receptor expressed in HEK Flp-In cells measured after 90 mins by microbeta scintillation counting method; format: cell-based, HEK293
[33] = molecular target: Sodium-dependent dopamine transporter (Homo sapiens, UniProt Q01959); assay: Displacement of [3H]WIN35428 from human DAT expressed in HEK cells measured after 90 mins by microbeta scintillation counting method; format: cell-based, HEK293
[34] = molecular target: Muscarinic acetylcholine receptor M3 (Homo sapiens, UniProt P20309); assay: Binding affinity to human M3 receptor expressed in CHO cells measured after 90 mins by radioligand binding assay; format: cell-based
Sequence of Muscarinic acetylcholine receptor M3 (P20309 whole entry): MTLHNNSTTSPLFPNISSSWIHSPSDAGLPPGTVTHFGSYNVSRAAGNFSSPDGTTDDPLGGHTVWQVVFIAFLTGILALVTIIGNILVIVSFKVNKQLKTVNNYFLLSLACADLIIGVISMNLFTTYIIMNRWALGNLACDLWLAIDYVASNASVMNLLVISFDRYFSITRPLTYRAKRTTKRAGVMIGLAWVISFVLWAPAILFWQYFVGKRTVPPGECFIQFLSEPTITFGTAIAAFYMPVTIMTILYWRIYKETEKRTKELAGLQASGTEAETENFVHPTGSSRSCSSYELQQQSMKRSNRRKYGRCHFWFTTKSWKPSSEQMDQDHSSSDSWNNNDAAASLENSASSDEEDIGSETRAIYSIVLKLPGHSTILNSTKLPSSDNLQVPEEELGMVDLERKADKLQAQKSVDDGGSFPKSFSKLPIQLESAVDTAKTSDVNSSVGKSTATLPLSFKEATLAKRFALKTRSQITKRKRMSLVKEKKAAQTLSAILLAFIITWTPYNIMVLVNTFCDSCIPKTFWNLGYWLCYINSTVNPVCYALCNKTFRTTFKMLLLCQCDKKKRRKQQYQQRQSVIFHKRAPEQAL

Sequence of Beta-2 adrenergic receptor (P07550 whole entry): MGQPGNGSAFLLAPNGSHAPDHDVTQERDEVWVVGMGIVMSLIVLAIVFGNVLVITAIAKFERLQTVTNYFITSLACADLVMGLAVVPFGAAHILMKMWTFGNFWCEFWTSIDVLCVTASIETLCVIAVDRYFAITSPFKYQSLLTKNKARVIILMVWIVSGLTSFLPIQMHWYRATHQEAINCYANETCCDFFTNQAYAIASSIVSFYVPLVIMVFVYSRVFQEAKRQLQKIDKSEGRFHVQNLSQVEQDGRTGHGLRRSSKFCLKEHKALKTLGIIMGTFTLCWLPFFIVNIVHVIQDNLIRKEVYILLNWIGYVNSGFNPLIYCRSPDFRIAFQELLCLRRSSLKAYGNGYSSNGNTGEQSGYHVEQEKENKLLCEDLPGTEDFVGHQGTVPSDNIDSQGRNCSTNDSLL
Sequence of Alpha-2B adrenergic receptor (P18089 whole entry): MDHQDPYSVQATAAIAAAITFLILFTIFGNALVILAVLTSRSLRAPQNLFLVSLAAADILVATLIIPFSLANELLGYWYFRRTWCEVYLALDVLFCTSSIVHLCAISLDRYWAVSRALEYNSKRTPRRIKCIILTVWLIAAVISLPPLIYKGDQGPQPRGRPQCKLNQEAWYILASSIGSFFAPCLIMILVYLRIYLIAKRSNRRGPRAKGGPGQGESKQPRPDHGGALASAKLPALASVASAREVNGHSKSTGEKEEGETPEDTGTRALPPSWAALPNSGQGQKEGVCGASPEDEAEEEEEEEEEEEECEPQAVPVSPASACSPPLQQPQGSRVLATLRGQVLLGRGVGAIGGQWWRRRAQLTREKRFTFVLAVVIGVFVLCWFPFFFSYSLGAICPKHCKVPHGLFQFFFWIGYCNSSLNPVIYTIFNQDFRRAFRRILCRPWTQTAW
Sequence of D(2) dopamine receptor (P14416 whole entry): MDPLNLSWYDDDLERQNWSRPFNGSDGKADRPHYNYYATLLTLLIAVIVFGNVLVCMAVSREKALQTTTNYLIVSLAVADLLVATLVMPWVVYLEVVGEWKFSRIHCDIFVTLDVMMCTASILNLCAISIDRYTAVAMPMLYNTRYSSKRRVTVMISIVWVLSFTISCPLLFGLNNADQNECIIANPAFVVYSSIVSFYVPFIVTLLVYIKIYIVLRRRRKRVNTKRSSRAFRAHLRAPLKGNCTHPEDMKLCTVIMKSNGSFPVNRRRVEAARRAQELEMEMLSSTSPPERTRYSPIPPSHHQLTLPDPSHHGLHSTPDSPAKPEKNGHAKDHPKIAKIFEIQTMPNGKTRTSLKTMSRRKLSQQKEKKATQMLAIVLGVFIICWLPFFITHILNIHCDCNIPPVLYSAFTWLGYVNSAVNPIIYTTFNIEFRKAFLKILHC
Sequence of Sigma non-opioid intracellular receptor 1 (Q60492 whole entry): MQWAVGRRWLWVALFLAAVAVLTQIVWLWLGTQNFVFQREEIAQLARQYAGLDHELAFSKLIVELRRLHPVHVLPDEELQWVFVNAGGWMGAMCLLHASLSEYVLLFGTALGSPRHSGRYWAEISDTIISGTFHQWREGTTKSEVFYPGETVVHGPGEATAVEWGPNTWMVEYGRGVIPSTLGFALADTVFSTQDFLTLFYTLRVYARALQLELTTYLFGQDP
Sequence of Sigma non-opioid intracellular receptor 1 (Cavia porcellus) (Q60492 whole entry): as above
Sequence of Delta-type opioid receptor (P41143 whole entry): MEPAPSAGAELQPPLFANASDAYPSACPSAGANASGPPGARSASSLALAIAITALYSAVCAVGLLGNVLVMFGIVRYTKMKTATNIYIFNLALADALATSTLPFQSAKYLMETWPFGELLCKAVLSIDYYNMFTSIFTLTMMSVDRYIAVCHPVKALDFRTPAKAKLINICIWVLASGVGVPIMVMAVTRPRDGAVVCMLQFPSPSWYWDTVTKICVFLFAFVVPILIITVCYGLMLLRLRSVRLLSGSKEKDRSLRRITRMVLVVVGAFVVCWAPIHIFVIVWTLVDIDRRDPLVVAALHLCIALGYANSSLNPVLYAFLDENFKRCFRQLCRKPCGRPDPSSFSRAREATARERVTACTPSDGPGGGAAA
Sequence of 5-hydroxytryptamine receptor 2B (P41595 whole entry): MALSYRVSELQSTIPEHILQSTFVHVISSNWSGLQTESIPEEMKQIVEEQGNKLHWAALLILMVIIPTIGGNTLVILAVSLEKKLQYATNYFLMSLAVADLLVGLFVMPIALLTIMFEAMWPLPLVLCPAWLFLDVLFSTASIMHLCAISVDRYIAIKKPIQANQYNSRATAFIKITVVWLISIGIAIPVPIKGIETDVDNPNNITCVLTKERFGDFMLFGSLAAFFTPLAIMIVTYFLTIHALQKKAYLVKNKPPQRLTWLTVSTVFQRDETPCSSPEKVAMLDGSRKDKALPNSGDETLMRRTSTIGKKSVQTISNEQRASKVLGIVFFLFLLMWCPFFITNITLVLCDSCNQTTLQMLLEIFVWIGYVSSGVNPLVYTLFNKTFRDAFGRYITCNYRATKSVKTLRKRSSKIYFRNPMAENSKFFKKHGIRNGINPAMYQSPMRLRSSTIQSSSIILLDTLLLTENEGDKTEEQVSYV
Sequence of Sodium-dependent noradrenaline transporter (P23975 whole entry): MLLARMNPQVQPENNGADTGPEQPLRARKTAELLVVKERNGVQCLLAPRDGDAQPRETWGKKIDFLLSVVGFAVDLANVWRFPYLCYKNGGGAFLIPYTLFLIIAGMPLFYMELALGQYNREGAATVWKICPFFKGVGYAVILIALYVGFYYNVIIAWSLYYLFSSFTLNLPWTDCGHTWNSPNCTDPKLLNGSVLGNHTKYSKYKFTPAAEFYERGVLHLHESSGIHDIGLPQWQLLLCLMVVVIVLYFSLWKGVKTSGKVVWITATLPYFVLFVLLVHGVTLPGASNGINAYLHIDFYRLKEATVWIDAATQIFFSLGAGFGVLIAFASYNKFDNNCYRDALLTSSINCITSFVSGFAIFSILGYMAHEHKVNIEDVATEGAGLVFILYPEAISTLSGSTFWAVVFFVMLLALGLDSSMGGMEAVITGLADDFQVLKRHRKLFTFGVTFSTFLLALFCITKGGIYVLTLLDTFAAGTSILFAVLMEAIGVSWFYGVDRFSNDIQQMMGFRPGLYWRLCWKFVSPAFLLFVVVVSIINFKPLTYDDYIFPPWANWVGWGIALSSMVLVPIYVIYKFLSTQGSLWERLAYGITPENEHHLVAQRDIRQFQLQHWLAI
Sequence of D(1A) dopamine receptor (P21728 whole entry): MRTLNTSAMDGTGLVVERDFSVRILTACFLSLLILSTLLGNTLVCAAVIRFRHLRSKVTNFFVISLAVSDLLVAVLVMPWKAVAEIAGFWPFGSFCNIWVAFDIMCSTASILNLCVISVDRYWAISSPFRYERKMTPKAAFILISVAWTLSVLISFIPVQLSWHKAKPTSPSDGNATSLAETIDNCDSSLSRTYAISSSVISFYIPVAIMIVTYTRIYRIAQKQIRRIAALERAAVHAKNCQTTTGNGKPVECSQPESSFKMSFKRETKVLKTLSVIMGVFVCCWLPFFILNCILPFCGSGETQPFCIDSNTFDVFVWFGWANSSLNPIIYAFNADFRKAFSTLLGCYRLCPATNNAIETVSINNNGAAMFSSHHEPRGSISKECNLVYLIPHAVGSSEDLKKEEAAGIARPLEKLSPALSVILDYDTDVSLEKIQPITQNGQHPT
Sequence of Muscarinic acetylcholine receptor M2 (P08172 whole entry): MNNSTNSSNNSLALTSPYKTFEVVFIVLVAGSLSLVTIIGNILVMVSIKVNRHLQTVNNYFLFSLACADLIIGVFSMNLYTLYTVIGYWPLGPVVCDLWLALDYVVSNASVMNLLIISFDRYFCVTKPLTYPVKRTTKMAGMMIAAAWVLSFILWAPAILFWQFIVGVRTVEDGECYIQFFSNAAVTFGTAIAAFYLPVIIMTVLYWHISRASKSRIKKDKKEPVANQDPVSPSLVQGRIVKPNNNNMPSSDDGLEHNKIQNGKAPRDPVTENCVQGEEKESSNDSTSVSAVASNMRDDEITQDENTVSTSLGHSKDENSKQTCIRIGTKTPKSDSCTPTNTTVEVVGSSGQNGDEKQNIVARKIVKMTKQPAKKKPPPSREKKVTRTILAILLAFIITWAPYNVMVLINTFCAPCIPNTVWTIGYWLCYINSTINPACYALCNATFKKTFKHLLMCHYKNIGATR
Sequence of Histamine H2 receptor (P25021 whole entry): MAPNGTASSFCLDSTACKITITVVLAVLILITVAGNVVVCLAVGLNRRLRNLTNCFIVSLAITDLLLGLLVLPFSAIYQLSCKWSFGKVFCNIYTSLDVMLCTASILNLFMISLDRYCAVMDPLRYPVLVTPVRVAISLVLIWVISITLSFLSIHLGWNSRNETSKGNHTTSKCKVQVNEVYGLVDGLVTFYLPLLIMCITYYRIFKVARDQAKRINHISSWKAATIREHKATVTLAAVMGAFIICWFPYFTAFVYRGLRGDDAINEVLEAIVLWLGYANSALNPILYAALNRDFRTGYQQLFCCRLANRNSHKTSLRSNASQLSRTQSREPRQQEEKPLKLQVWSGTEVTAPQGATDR

| Compound | Ki [1] [µM] | Ki [2] [µM] | Ki [3] [µM] | Ki [4] [µM] | Ki [5] [µM] | Ki [6] [µM] | inhibition [7] [%] | inhibition [8] [%] | Ki [9] [µM] | Ki [10] [µM] | Ki [11] [µM] | Ki [12] [µM] | Ki [13] [µM] | Ki [14] [µM] | Ki [15] [µM] | Ki [16] [µM] | Ki [17] [µM] | Ki [18] [µM] | Ki [19] [µM] | Ratio Ki [20] | other results |
| --- | --- | --- | --- | --- | --- | --- | --- | --- | --- | --- | --- | --- | --- | --- | --- | --- | --- | --- | --- | --- | --- |
| CCCN1CC[C@H]2c3cc4ccc(C(F)(F)F)cc4nc3[C@H](CC)[C@H]3CCC[C@@H]1[C@@H]32 | > 10 | > 10 | > 10 | 1.59 | 1.04 | > 10 | > 50 | > 50 | > 10 | > 10 | > 10 | 0.416 | > 10 | 0.015 | 2.36 | 0.423 | > 10 | > 10 | 1.04 | 0.04 | Ki [21]: > 10 µM; Ki [22]: > 10 µM; Ki [23]: > 10 µM; Ki [24]: > 10 µM; Ki [25]: > 10 µM; Ki [26]: > 10 µM; Ki [27]: > 10 µM; Ki [28]: > 10 µM; Ki [29]: > 10 µM; Ki [30]: > 10 µM; Ki [31]: > 10 µM; Ki [32]: > 10 µM; Ki [33]: > 10 µM; Ki [34]: > 10 µM |
| CN1CC[C@H]2CC(=O)[C@H](Cc3ccccc3)[C@H]3CCC[C@@H]1[C@H]23 | > 10 | > 10 | > 10 | > 10 | > 10 | > 10 | > 50 | > 50 | > 10 | 3.49 | > 10 | > 10 | > 10 | 0.148 | > 10 | 0.0015 to 0.002 | > 10 | > 10 | > 10 | 98.7 | Ki [21]: > 10 µM; Ki [22]: > 10 µM; Ki [23]: > 10 µM; Ki [24]: > 10 µM; Ki [25]: > 10 µM; Ki [26]: > 10 µM; Ki [27]: > 10 µM; Ki [28]: > 10 µM; Ki [29]: > 10 µM; Ki [30]: > 10 µM; Ki [31]: 1.91 µM; Ki [32]: > 10 µM; Ki [33]: 2.18 µM; Ki [34]: 0.661 µM |
